Measured values as given in patent US5696239A (The Dow Chemical Company, priority 1995, dated 1997).
Where a name gives a salt, the structure may show the parent alone. Read-outs that look alike come from different tables or passages of the source. One block for each molecule: values may come before it.

Tests used:
[1] = In vivo biodistribution of chelates in rats (% dose in organs); settings: rat, 2 hours after i.v. injection
[2] = Percent complex determination, samarium complexes (Sephadex C-25 cation exchange); format: physicochemical; settings: for % Complex (10:1), Sm / % Complex, Sm: samarium; for % Complex (10:1), Sm: ligand/metal 10:1; for % Complex, Sm: ligand/metal ratio about 50:1 (** footnote)
Description: (§1) A disposable 10 ml plastic (Biorad) column was filled with 1 to 2 ml of water-swelled Sephadex™ C-25 cation exchange resin. The water was pressure eluted to the top of the resin. Fifteen μl of the complex (or more if counts were low) were added to the top of the resin. This was followed by 2 ml of 4:1 (V:V) isotonic saline:conc. ammonium hydroxide solution as an eluent which was allowed to drip into a counting tube. This was also pressure eluted to the top of the resin. An additional 2 ml of the eluent were added and the column pressure eluted to remove all liquid. The dried resin was then placed in a third counting tube and the three tubes counted on a NaI well counter using a Canberra multichannel analyzer linked to a computer. The percent complex was determined by dividing the number of counts in the two elutions by the total counts in the elutions plus the column, all times 100.
Percent complex determination was made in the same manner as for the yttrium complex.

[3] = Inertness of samarium complex versus pH; format: physicochemical; settings: Sm
Description: as §1, with “100. By this method, uncomplexed yttrium was retained on the column.” for “100.”
(§2) One portion was treated with 1-2 μl portions of 0.1N hydrochloric acid until the pH was lowered and the other portion was treated with 0.1N sodium hydroxide to bring the pH up. The complexes were allowed to set for 5-10 minutes at each pH change, then they were sampled to determine the percent complexation at that pH by the method described for Examples 16 through 33.
as §2, with “of 1.0N” for “of 0.1N”, “with 0.1N, 1.0N and 50 weight %” for “with 0.1N”, “for about 5” for “for 5-10”

[4] = Complex study: percent yttrium complex after addition of excess metal (lability); format: physicochemical
Description: as §1, with “100. By this method, uncomplexed yttrium was retained on the column.” for “100.”
The 1:1 complex of yttrium with 1-(p-aminobenzyl)diethylenetriaminepentaacetic acid (ABDTPA), a well known bifunctional chelant used in the literature, and with the ligand of Example 2 (Now Ex. XVI) and Example 12 (now Ex. XVII) were prepared using the techniques described earlier. Several 100 microliter aliquots were then withdrawn into separate centrifuge tubes. Excess metal was added such that the total volume change is minimized and the time noted. One-half hour after metal addition, the percent complex was determined by the Sephadex™ C-25 method and this was compared to the original amount of complex. The percent complex versus added metal gives an indication as to the lability of the ligand-metal complex. Results are given below and are compared to the EDTA-yttrium complex.

[5] = complexes with Sc-46, Y-91, La-140 and Sm-153; chelant to metal 5:1; cited from earlier work
[6] = Percent complex determination, yttrium complexes (Sephadex C-25 cation exchange); format: physicochemical; settings: for % Complex (10:1), Y: ligand/metal 10:1, pH 7.4
Description: Complexes were made by preparing a 0.0003M yttrium solution in water. (YCl3.6H2 O, 303.26 g/mole; Y(OAc)3, 12.1% H2 O). Radioactive YCl3 (Oakridge National Laboratories) was added to give the desired number of counts. Ten μl of ligand solution (at 0.03M) were added to 990 μl of the Y solution, giving a ligand-to-metal ratio of 1:1. (Ten times the amount of ligand solution was used for a 10:1 ligand to metal ratio.) The pH was then adjusted to 7.4 using microliter quantities of hydrochloric acid or sodium hydroxide. The solution was then tested for the amount of complexed yttrium using the cation exchange method given below.
as §1, with “100. By this method, uncomplexed yttrium was retained on the column.” for “100.”

[7] = rat, in vivo, 120 min; for % Injected Dose in Liver: iv
[8] = patients with metastatic bone lesions; cited from earlier work
[9] = Sm complex, ligand/metal about 300:1 (Examples D and E)
[10] = metal/ligand molar ratio 500, one-half hour after metal addition

Molecule: 2-[(2-[(2-[(2-{[BIS(CARBOXYMETHYL)]AMINO}ETHYL)(CARBOXYMETHYL)AMINO]ETHYL)(CARBOXYMETHYL)AMINO]ETHYL)(CARBOXYMETHYL)AMINO]-2-[5-ACETAMIDO-2-(CARBOXYMETHYLOXY)PHENYL]ETHANOIC ACID AND 2[(2-[(2-{[BIS(CARBOXYMETHYL)]AMINO}ETHYL)(CARBOXY-METHYL)AMINO]ETHYL)(2-{[BIS(CARBOXYMETHYL)]AMINO}-ETHYL)AMINO]-2-[5-ACETAMIDO-2-(CARBOXYMETHYLOXY)PHENYL]-ETHANOIC ACID [Example 9]
- % Injected Dose in Liver ([1]; Sm complex, ligand/metal 10:1): 2.8%
- % Complex (10:1), Sm [2]: > 99%

Molecule: 2-[BIS(2-{[(BIS(CARBOXYMETHYL)]AMINO}ETHYL)AMINO]-2-[5-AMINO-2-(CARBOXYMETHYLOXY)PHENYL]ETHANOIC ACID AND 2-[{2-[(2-{[BIS(CARBOXYMETHYL)]AMINO}ETHYL)(CARBOXYMETHYL)AMINO]ETHYL}(CARBOXYMETHYL)AMINO]-2-[5-AMINO-2-(CARBOXYMETHYLOXY)-PHENYL]ETHANOIC ACID [Example 7]
- % Complexed ([3]; pH 1, 5-10 minutes): 98%
- % Complexed ([3]; pH 2, 5-10 minutes): 100%
- % Complexed ([3]; pH 3, 5-10 minutes): 100%
- % Complexed ([3]; pH 4, 5-10 minutes): 100%
- % Complexed ([3]; pH 5, 5-10 minutes): 100%
- % Complexed ([3]; pH 7, 5-10 minutes): 100%
- % Complexed ([3]; pH 9, 5-10 minutes): 100%
- % Complexed ([3]; pH 11, 5-10 minutes): 100%
- % Complexed ([3]; pH 13, 5-10 minutes): 100%
- percent Sm complexed ([2]; as prepared, pH adjusted to about 7.5): 100%
- % Complex, Sm [2]: 96%

Molecule: 2-[bis(2-{[(bis(carboxymethyl)]amino}ethyl)amino]-2-[5-acetamido-2-(carboxymethyloxy)phenyl]ethanoic acid and 2-[{2-[(2-{[bis(carboxymethyl)]amino}ethyl)(carboxymethyl)amino]ethyl}(carboxymethyl)amino]-2-[5-acetamido-2-(carboxymethyloxy)-phenyl]ethanoic acid [Example 6]
- % Injected Dose in Liver ([1]; Sm complex, ligand/metal 10:1): 0.38%
- % Complex (10:1), Sm [2]: > 99%

Molecule: O=C(O)CN(CCN(CC(=O)O)CC(=O)O)CC(=O)O [EDTA, ethylenediaminetetraacetic acid]
- % Injected Dose in Liver ([1]; Sm complex, ligand/metal 5:1): 8.4%
- % Injected Dose in Liver [1, 9]: 4.4%
- % Complex ([4]; metal/ligand molar ratio 250, one-half hour after metal addition): 48%
- % Complex [4, 10]: 16%
- organ distribution of radioactivity [5]: high concentrations of radioactivity were observed in the liver, spleen, kidney, lung and bone

Molecule: CC(=O)Nc1ccc(O)c(C(NCCN(CC(=O)O)CC(=O)O)C(=O)O)c1 (stereo not drawn) [Example 1, 2-[(2-{[bis(carboxymethyl)]amino}ethyl)amino]-2-(5-acetamido-2-hydroxyphenyl)ethanoic acid]
- % Complex (10:1), Y [6]: 98%
- % dose in the blood [7]: 0.57%
- % dose in the bone [7]: 56.1%
- % dose in the muscle [7]: 0.78%
- % dose in the spleen [7]: 0.03%
- % Injected Dose in Liver [7]: 0.87%

Molecule: Nc1ccc(OCC(=O)O)c(C(C(=O)O)N(CCN(CCN(CC(=O)O)CC(=O)O)CC(=O)O)CC(=O)O)c1 (stereo not drawn) [Example 8, 2-[{2-[(2-{[BIS(CARBOXYMETHYL)]-AMINO}ETHYL)(CARBOXYMETHYL)AMINO]ETHYL}(CARBOXYMETHYL)AMINO]-2-[5-AMINO-2-(CARBOXYMETHYLOXY)PHENYL]ETHANOIC ACID]
- % Complexed ([3]; pH 1, about 5 minutes): 91%
- % Complexed ([3]; pH 2, about 5 minutes): 88%
- % Complexed ([3]; pH 3, about 5 minutes): 92%
- % Complexed ([3]; pH 5, about 5 minutes): 96%
- % Complexed ([3]; pH 7, about 5 minutes): 96%
- % Complexed ([3]; pH 9, about 5 minutes): 99%
- % Complexed ([3]; pH 12, about 5 minutes): 98%
- % Complexed ([3]; pH 13, about 5 minutes): 99%
- percent complexation, Sm ([2]; as prepared, pH adjusted to about 7): 96%
- % Complex, Sm [2]: > 99%

Molecule: CC(=O)Nc1ccc(O)c(CN(CCN(CC(=O)O)Cc2cc(NC(C)=O)ccc2O)CC(=O)O)c1 [Example U, N,N'-DI(2-HYDROXY, 5-ACETAMIDOBENZYL)ETHYLENEDIAMINE-N,N'-DIACETIC ACID, reference compound]
- % Injected Dose in Liver ([1]; Sm complex, comparative, ligand/metal ratio not stated): 12%

Molecule: Nc1ccc(O)c(C(NCCNC(C(=O)O)c2cc(N)ccc2O)C(=O)O)c1 (stereo not drawn) [Example X, ethylenediaminedi(2-hydroxy-5-aminophenyl)acetic acid, reference compound]
- % Injected Dose in Liver [7]: 24%

Molecule: O=C(O)CN(CC(=O)O)CC(=O)O [NTA, nitrilotri-acetic acid, reference compound]
- % Injected Dose in Liver [1, 9]: 8.6%
- organ distribution of radioactivity [5]: high concentrations of radioactivity were observed in the liver, spleen, kidney, lung and bone

Molecule: [Cl][Sm]([Cl])[Cl] [SmCl3, samarium chloride, reference compound]
- % Injected Dose in Liver ([1]; samarium chloride in unchelated form): 39%

Molecule: [89Sr] [Strontium-89]
- blood levels [8]: high blood levels
- lesion to normal bone ratios [8]: low lesion to normal bone ratios

The remaining lines, values ahead:

- % Complex (10:1), Y [6]: > 99%
- % Complex [4, 10]: 75%
- % Injected Dose in Liver [7]: 0.22%
- % Complex (10:1), Sm [2]: > 99%
Molecule: CC(=O)Nc1ccc(OCC(=O)O)c(C(C(=O)O)N(CCN(CC(=O)O)CC(=O)O)CC(=O)O)c1 (stereo not drawn) [Example 2, 2-[(2-{[bis(carboxymethyl)]amino}ethyl)(carboxymethyl)amino]-2-[5-acetamido-2-(carboxymethyloxy)phenyl]ethanoic acid]

- % Complex (10:1), Y [6]: > 99%
- % Injected Dose in Liver [7]: 0.22%
Molecule: Nc1ccc(OCC(=O)O)c(C(C(=O)O)N(CCN(CC(=O)O)CC(=O)O)CC(=O)O)c1 (stereo not drawn) [Example 3, 2-[(2-{[BIS(CARBOXYMETHYL)]AMINO}ETHYL)(CARBOXYMETHYL)AMINO]-2-[5-AMINO-2- (CARBOXYMETHLOXY)PHENYL]ETHANOIC ACID, PENTA SODIUM SALT]

- % Complex (10:1), Y [6]: > 99%
- % Injected Dose in Liver [7]: 1.4%
Molecule: CC(=O)Nc1ccc(O)c(C(C(=O)O)N(CC#N)CCN(CC(=O)O)CC(=O)O)c1 (stereo not drawn) [Example 4, 2-[(2-{[bis(carboxymethyl)]amino}ethyl)(cyanomethyl)amino]-2-(5-acetamido-2-hydroxyphenyl)ethanoic acid]

- % Complex (10:1), Y [6]: 99%
- % Injected Dose in Liver [7]: 0.38%
Molecule: Nc1ccc(O)c(C(C(=O)O)N(CCN(CC(=O)O)CC(=O)O)CC(=O)O)c1 (stereo not drawn) [Example 5, 2-[(2-{[BIS(CARBOXYMETHYL)]AMINO}ETHYL)(CARBOXYMETHYL)AMINO]-2-(5-AMINO-2- HYDROXYPHENYL)ETHANOIC ACID]

- % Complex (10:1), Y [6]: 99%
- % Complex, Y ([6]; ligand/metal ratio about 1:1 (* footnote)): 98%
Molecule: CC(=O)Nc1cc(CN(CCN(CC(=O)O)CC(=O)O)CC(=O)O)c(O)c(CN(CCN(CC(=O)O)CC(=O)O)CC(=O)O)c1 [Example 11]

- % Complex (10:1), Y [6]: 99%
- % Injected Dose in Liver [7]: 0.37%
Molecule: CC(=O)Nc1cc(CN(CCN(CC(=O)O)CC(=O)O)CC(=O)O)c(O)c(CN(CC(=O)O)CC(=O)O)c1 [Example 15, 2-({[BIS(CARBOXYMETHYL)]AMINO}METHYL)-6-{[({[BIS(CARBOXYMETHYL)]AMINO}ETHYL)(CARBOXYMETHYL)AMINO]METHYL}-4-(ACETAMIDO)PHENOL]
